Reference: US20090111895A1, “ENHANCED DIALDEHYDE DISINFECTANT AND STERILIZATION FORMULATIONS” (Ethicon, Inc., priority 2007, published 2009)

What was measured:
Bacillus subtilis spores = assay: Time kill assay; type: cell-based; settings: Table 6; 0.3% ortho-phthalaldehyde, 20° C.
Protocol: Test solutions were prepared by mixing acetate with ortho-phthalaldehyde (if applicable) and the solutions were adjusted to pH 7.2. The solutions were then challenged with 10^6 per ml of Bacillus subtilis spores at 20° C. (room temperature). At each predetermined exposure time, samples from each of the test solutions were tested/assayed for survivors.

[1] = test system: Bacillus subtilis (ATCC 19659) spores; assay: Bacillus subtilis sporicidal suspension test; type: cell-based; settings: 20° C.; for sporicidal activity (in words): Table 1 results; for sporicidal activity (in words) / enhancement of the sporicidal activity of ortho-phthalaldehyde (in words): 5 hours; for enhancement of the sporicidal activity of ortho-phthalaldehyde (in words): Tables 2-4, 0.3 wt. % ortho-phthalaldehyde
Protocol: The phrase “Bacillus subtilis sporicidal suspension test”, when used in the appended claims means a determination of the sporicidal activity of a dialdehyde calculated as a log reduction of Bacillus subtilis bacterial spores. The test is performed according to Example 1 by treatment of Bacillus subtilis bacterial spores with a formulation consisting of the dialdehyde to be tested in water. The log10 reduction/mL is calculated from log N0−log Ni where N0 represent the number of organisms (cfu/mL) at time zero; and Ni represent the number of surviving organism (cfu/mL) at designated exposure time.
Several ortho-phthalaldehyde based germicidal solutions were tested to determine their effectiveness in killing Bacillus subtilis (ATCC 19659) spores using the Bacillus subtilis sporicidal suspension test.
For preparation of the inoculating spore test suspension, a 1 ml aliquot of the spore harvest was serial diluted with sterile water to produce a spore suspension of approximately 1×10^7 cfu ml.
Test solutions of ortho-phthalaldehyde/acetate were prepared by mixing acetate with CIDEX® OPA (which is a 0.55% solution of ortho-phthalaldehyde in water around pH 7.3, commercially available from Advanced Sterilization Products, a Johnson & Johnson Company) and diluted to levels indicated in Table 1.
The 1 ml aliquots of spore suspensions were exposed to 9 ml of ortho-phthalaldehyde solution at 20° C. The pHs of the tested solutions were adjusted to 7.3-7.5.
The experiments were performed using the suspension test, which involved adding 1 ml of 10^7 spores to sterile test tubes containing 9 ml of the challenge solution. The resulting test sample spore concentration was 10^6 cfu /ml. The tubes containing the test suspension/spores were vortex briefly to allow for mixing of the solution/spores. At the end of each of the appropriate exposure time at 20° C., 1 ml aliquots of the solution/spores mixture were aseptically transferred to sterile filtration units containing 0.45μ membrane filters with 100 ml of neutralizer solution (1% w/v glycine solution). The solutions were filtered and the membrane filters were rinsed again with 100 ml of neutralizers solution. The membrane filters were then individually transferred onto the surface of commercially available sterile Tryptic Soy Agar plates. The plates were incubated at 37° C. for 48 hours. After incubation, the number of survivors were determined for each test sample/exposure time.
The log10 reduction/mL is calculated from log N0−log Ni where N0 represent the number of organism (cfu/mL) at time zero; and Ni represent the number of surviving organism (cfu/mL) at designated exposure time.
In addition to acetate, several mixtures of ortho-phthalaldehyde with different carboxylates such as chloroacetate and propionate were also tested using the protocol described above in Example 1.
Benzoate was evaluated for its ability to enhance the sporicidal activity of ortho-phthalaldehyde using the protocol described above in Example 1. The pHs of all solutions were adjusted to neutral, 7.3-7.5.
Spore suspension tests with five germicide solutions containing 2.4% glutaraldehyde with various amounts of acetate ranging from 0 to 7% were conducted at 20° C. for 4 hours with Bacillus using the protocol described above in Example 1. The pHs of the solutions were adjusted to 8.2-8.9, which is the typical pH range for glutaraldehyde disinfecting solutions.

spores of B. subtilis = settings: cited from earlier work

Row | SMILES | sporicidal activity (in words) [1] | enhancement of the sporicidal activity of ortho-phthalaldehyde (in words) [1] | further results
1 | CC(=O)[O-].[K+] [acetate, potassium acetate] | does not have significant sporicidal activity | – | enhancement of the sporicidal activity of ortho-phthalaldehyde (in words) (Bacillus subtilis spores): the sporicidal activity of ortho-phthalaldehyde is significantly enhanced; enhancement of the sporicidal activity of glutaraldehyde (in words) ([1]; Table 5, 2.4% glutaraldehyde, 4 hours): the sporicidal activity of glutaraldehyde is significantly enhanced
2 | O=C(O)c1ccccc1 [benzoate] | – | enhances ortho-phthalaldehyde sporicidal efficacy when the benzoate concentration is above about 3% | –
3 | O=C(O)CCl [chloroacetate] | – | significantly enhance the sporicidal activity of ortho-phthalaldehyde | –
4 | O=Cc1ccccc1C=O [ortho-phthalaldehyde, reference compound] | does not have significant sporicidal activity | – | activity against spores of B. subtilis (in words) (spores of B. subtilis): relatively ineffective against spores of B. subtilis
5 | CCC(=O)O [propionate] | – | significantly enhance the sporicidal activity of ortho-phthalaldehyde | –
